Reference: PMC6736568, “Discovery of Novel Anti-cryptosporidial Activities From Natural Products by in vitro High-Throughput Phenotypic Screening” (Frontiers in Microbiology, 2019)
Where two headings read alike, the source gives them in different places.

Key:
[1] = system: HCT-8 host cells (Hs18S)
[2] = system: Cryptosporidium parvum; test: qRT-PCR assay of the growth of C. parvum in vitro in HCT-8 host cells (primary and secondary screening, EC50); format: cell-based; details: for % Inhibition (3.3 uM): secondary screening at 3.3 uM
[3] = primary screening at 10 uM, from Hs18S ΔCT
[4] = primary screening at 10 uM, treated vs control

SMILES | Cytotoxicity (%) [1, 3] [%] | Hs18S ΔCT [1, 4] | Inhibition (%) ([2]; primary screening at 10 uM) | Hs18S ΔCT [1] | Cytotoxicity (%) ([1]; 10 µM) | Inhibition (%) ([2]; 10 µM) | % Inhibition (3.3 uM) [2] [%]
CC(=O)O.Cc1cc2c(C(C)C)c(O)c(O)c(C=O)c2c(O)c1-c1c(C)cc2c(C(C)C)c(O)c(O)c(C=O)c2c1O [GOSSYPOL-ACETIC ACID COMPLEX] | -7.1 | -0.10 | -21.55 |  |  |  | 
C[C@H]1CC[C@@H](C(C)(C)O)CC2=C1CC[C@@H]2C [GUAIOL(-)] |  |  |  | 0.20 | 12.7 | -22.71 | 
CC(=O)Oc1cc2c(cc1OC(C)=O)[C@@H]1c3ccc(OC(C)=O)c(OC(C)=O)c3OC[C@]1(OC(C)=O)C2 [HAEMATOXYLIN PENTAACETATE] | 12.3 | 0.19 | -26.73 |  |  |  | 
COc1ccc([C@@H]2CC(=O)c3c(O)cc(O[C@@H]4O[C@H](CO[C@@H]5O[C@@H](C)[C@H](O)[C@@H](O)[C@H]5O)[C@@H](O)[C@H](O)[C@H]4O)cc3O2)cc1O [HESPERIDIN] | 21.5 | 0.35 | 66.25 |  |  |  | 36
COc1ccc(-c2oc3cc(OC)c(OC)c(OC)c3c(=O)c2OC)cc1OC [HEXAMETHYLQUERCETAGETIN] | 50.3 | 1.01 | 95.76 |  |  |  | -42
O=c1cc(-c2cc(O)c(O)c(O)c2)oc2cc(O)cc(O)c12 [HIERACIN] |  |  | -2.75 |  | 31.0% |  | 
COc1ccc2c(c1OC)C(=O)O[C@@H]2[C@H]1c2cc3c(cc2CCN1C)OCO3 [HYDRASTINE (1R, 9S)] |  | -0.18 | -23.62 |  |  |  | 
CC(=O)[C@@]1(O)CC[C@H]2[C@@H]3CCC4=CC(=O)CC[C@]4(C)[C@H]3CC[C@@]21C [HYDROXYPROGESTERONE] | 22.7 | 0.37 | -50.17 |  |  |  | 
COc1ccc2c(=O)c(-c3ccc(O)cc3)coc2c1 [ISOFORMONONETIN] | -21.7 | -0.28 | -7.36 |  |  |  | 
CC1(C)C=Cc2c(c3c(c4c(=O)c(-c5ccc(O)cc5)coc24)OC(C)(C)CC3)O1 [ISOOSAJIN] | -18.5 | -0.24 | 96.83 |  |  |  | 39
C[C@H]1O[C@H](OC2[C@@H](O)[C@@H](O)C(O)[C@H](O)[C@H]2O)[C@@H](N)C[C@@H]1N=C(N)C(=O)O.Cl (stereo partly shown) [KASUGAMYCIN HYDROCHLORIDE] | -1.2 | -0.02 | 47.53 |  |  |  | 
C=CCSC[C@H](N)C(=O)O [L-DEOXYALLIIN] | -21.9 | -0.29 | 38.80 |  |  |  | 
CC(=O)NCCc1ccc(O)c(-c2c(O)c(O)c3c(c2O)C(=O)c2c(cc(O)c(C(=O)O)c2C(=O)O)C3=O)c1 [LACCAIC ACID A] | -6.6 |  | 21.81 |  |  |  | 
O=C(O)[C@H](O)[C@@H](O)[C@H](O[C@@H]1O[C@H](CO)[C@H](O)[C@H](O)[C@H]1O)[C@H](O)CO [LACTOBIONIC ACID] | -27.5 | -0.35 | -17.48 |  |  |  | 
O.OC[C@H]1O[C@@H](O[C@H]2[C@H](O)[C@@H](O)[C@@H](O)O[C@@H]2CO)[C@H](O)[C@@H](O)[C@H]1O [LACTOSE MONOHYDRATE] |  | 0.02 | 31.71 |  |  |  | 
C[C@@H]1CC[C@H]2[C@](C)(CO)[C@@H](O)CC[C@]2(C)[C@@]12CC[C@@](CO)(CCO)O2 [LAGOCHILIN] | 34.1 | 0.60 | 9.20 |  |  |  | 
CC(=O)O[C@H]1CC[C@]2(C)C3=C(CC[C@H]2C1(C)C)[C@]1(C)CC[C@H]([C@H](C)CCC=C(C)C)[C@@]1(C)CC3 [LANOSTEROL ACETATE] | -2.8 | -0.04 | -3.78 |  |  |  | 
Cc1occc(=O)c1O [LARIXINIC ACID] | 12.9 | 0.20 | 59.78 |  |  |  | 
C=C[C@@](C)(O)CC[C@H]1C(=C)C[C@H](O)[C@H]2C(C)(C)CCC[C@]12C [LARIXOL] | 2.2 | 0.03 | 31.41 |  |  |  | 

SMILES | Cytotoxicity (%) [1, 3] [%] | Hs18S ΔCT [1, 4] | Inhibition (%) ([2]; primary screening at 10 uM) | Hs18S ΔCT [1] | Cytotoxicity (%) ([1]; 10 µM) | Inhibition (%) ([2]; 10 µM) | % Inhibition (3.3 uM) [2] [%]
CC(C)CCC[C@@H](C)[C@H]1CC[C@H]2C3=CC[C@H]4C[C@@H](O)CC[C@]4(C)[C@H]3CC[C@]12C [LATHOSTEROL] | 21.4 | 0.35 | -50.10 |  |  |  | 
O=C1CCC[C@@H]2[C@H]3C[C@@H](CN12)[C@@H]1CCCCN1C3.[O-][Cl+3]([O-])([O-])O [LUPANINE PERCHLORATE] | -6.1 | -0.09 | 10.49 |  |  |  | 
C=C(C)[C@@H]1CC[C@]2(C)CC[C@]3(C)[C@H](CC[C@@H]4[C@@]5(C)CC[C@H](OC(C)=O)C(C)(C)[C@@H]5CC[C@]43C)[C@@H]12 [LUPEOL ACETATE] | -12.1 | -0.17 | 25.85 |  |  |  | 
COc1cc2oc3cc(OC)c(OC)c(CC=C(C)C)c3c(=O)c2c(OC)c1CC=C(C)C [MANGOSTIN TRIMETHYL ETHER] |  |  | -8.08 | 0.00 | -0.1 |  | 
OC[C@H]1O[C@H](OCC2O[C@@H](O)[C@H](O)[C@@H](O)[C@@H]2O)[C@H](O)[C@@H](O)[C@H]1O (stereo partly shown) [MELIBIOSE] | -4.0 | -0.06 | -16.19 |  |  |  | 
COC(=O)/C(C)=C\C[C@@]12OC(C)(C)[C@@H]3C[C@@H](C=C4C(=O)c5c(OC)c6c(c(CC=C(C)C)c5O[C@]431)O[C@](C)(CCC=C(C)C)C=C6)C2=O [METHYL GAMBOGATE METHYL ETHER] | 22.4 | 0.37 | 23.61 |  |  |  | 
COC(=O)/C=C/c1cc(OC)c(OC)c(OC)c1 [METHYL TRIMETHOXYCINNAMATE] | 2.8 | 0.04 | -24.35 |  |  |  | 
C[C@@]1(O)CCOC(=O)C1 [MEVALONIC ACID LACTONE] | 16.5 | 0.26 | 26.69 |  |  |  | 
COC(=O)C1=CO[C@@H](C)[C@H]2CN3CC[C@]4(C(=O)Nc5ccccc54)[C@@H]3C[C@H]12 [MITRAPHYLLINE] | 11.1 | 0.17 | 41.31 |  |  |  | 
CCC(C)C(NC)C(=O)O (stereo not shown) [N-METHYLISOLEUCINE] |  |  | -3.51 | -0.07 | -5.2 |  | 
CN1CCC[C@H]1c1cccnc1.O=C(O)C(O)C(O)C(=O)O.O=C(O)C(O)C(O)C(=O)O [NICOTINE BITARTRATE] | -43.3 | -0.52 | 36.71 |  |  |  | 
C[C@@H]1[C@H](O)[C@@H](C)/C=C/C=C/CC/C=C/C=C/C=C/C=C/C(O[C@H]2O[C@H](C)[C@@H](O)[C@H](N)[C@@H]2O)CC2O[C@](O)(CC(O)C(O)CCC(O)CC(O)CC(O)CC(=O)O[C@H]1C)CC(O)C2C(=O)O (stereo partly shown) [NYSTATIN] | 51.7 | 1.05 | 34.97 |  |  |  | 
COc1ccc(-c2coc3c4c(c(CC=C(C)C)c(O)c3c2=O)OC(C)(C)C=C4)cc1 [OSAJIN 4'-METHYL ETHER] | -2.7 | -0.04 | -21.87 |  |  |  | 
COC[C@]12CN(C=O)[C@@H]3[C@@H]4[C@H](OC)[C@H]1[C@@]3([C@@H](OC)C[C@H]2O)[C@@H]1C[C@@]2(O)[C@H](OC(=O)c3ccccc3)[C@@H]1[C@]4(OC(C)=O)[C@@H](O)[C@@H]2OC [OXONITINE] | 3.3 | 0.05 | 0.75 |  |  |  | 
COc1cc2c(cc1-c1cc3cc4ccoc4cc3oc1=O)OCO2 [PACHYRRHIZIN] | -6.0 | -0.08 | 29.77 |  |  |  | 
CN(C)CC(=O)OC[C@@H](O)[C@@H](O)[C@H](O)[C@@H](O)C(=O)[O-].[Na+] [PANGAMIC ACID SODIUM] |  |  | -4.04 |  | -61.0% |  | 
CC(=O)OCC(OC(C)=O)C(OC(C)=O)C(OC(C)=O)C(OC(C)=O)C(COC(C)=O)OC(C)=O (stereo not shown) [PERSEITOL HEPTAACETATE] | -10.1 | -0.14 | 0.17 |  |  |  | 
Cl.NCCc1ccccc1 [PHENETHYLAMINE HYDROCHLORIDE] | 87.4 | 2.99 | 39.04 |  |  |  | 
CC(=O)c1c(O)cc(O)cc1O [PHLORACETOPHENONE] | 26.5 | 0.44 | -25.30 |  |  |  | 
